Results published in patent US10532106B2 (priority 2014, dated 2020).
Numbered stars: 1 amine (or outer) side, 2 acyl side, 3 side chain; on linkers, the order of the positions; unused ones are H or OH. Bridge positions count the residues as written; N and C are the ends. Square brackets hold non-standard residues; d marks the D form. Peptide text beside a SMILES is read from it. * marks the point of attachment. 5FAM = O=C1OC2(c3ccc(O)cc3Oc3cc(O)ccc32)c2ccc(C(=O)*)cc21; DOTA = O=C(O)CN1CCN(CC(=O)O)CCN(CC(=O)*)CCN(CC(=O)O)CC1; Phe(4-Br) = N[C@@H](Cc1ccc(Br)cc1)C(=O)O; 1Nal = N[C@@H](Cc1cccc2ccccc12)C(=O)O; TBMB = c1c(C[*:1])cc(C[*:3])cc1C[*:2]; Phg = N[C@H](C(=O)O)c1ccccc1; Tle = CC(C)(C)[C@H](N)C(=O)O; Sar = CNCC(=O)O

Columns and labels:
MT1-MMP hemopexin domain [1] = biological target: T1, MT1-MMP hemopexin domain (Homo sapiens, UniProt P50281); assay: Direct binding fluorescence polarisation (FP) assay; settings: Table 2; FP method Direct Binding; read-out: Kd
T1 construct: residues Cys319-Gly511 from the human gene; His6 (N); made in house; host or cells: HEK293 (transient), pEXPR-IBA42 vector
Description: Direct Binding Fluorescence Polarisation or Anisotropy Assays are performed by titrating a constant concentration of fluorescent tracer (here, the fluoresceinated bicyclic peptide to be studied) with its binding partner (here, the MT1-MMP hemopexin domain). As the concentration of binding partner increases during the titration, the polarisation signal changes in proportion to the fraction of bound and unbound material. This allows determination of […] (Kd) quantitatively. Assay data can be fit using standard ligand binding equations.
The titrant (binding partner) concentration is varied from 0.1 nM up to typically 5 μM. The range is chosen such that the maximum change in fluorescent polarisation can be observed. Buffers employed are phosphate buffered saline in the presence of 0.01% Tween. Experiments were run in black 384 well low-bind/low volume plates (Corning 3820), and the fluorescent polarisation signal was measured using a BMG Pherastar FS plate reader.
Fluorescent tracers referred to in the text are bicyclic peptides that have been fluoresceinated using 5,6-carboxyfluorescein. Fluoresceination may be performed on the N-terminal amino group of the peptide, which is separated from the bicycle core sequence by a sarcosine spacer (usually Sar5). This can be done during Fmoc solid phase synthesis or post-synthetically (after cyclisation with TBMB and purification) if the N-terminal amino group is unique to the peptide. Fluoresceination can also be performed on the C-terminus, usually on a Lysine introduced as the first C-terminal residue, which is then separated from the bicycle core sequence by a sarcosine spacer (usually Sar6). Thus, N-terminal tracers can have a molecular format described as Fluo-Gly-Sar5-A(BicycleCoreSequence), and (BicycleCoreSequence)-A-Sar6-K(Fluo) for a C-terminally fluoresceinated construct. Fluorescent tracers used in the Examples are A-(17-69)-A-Sar6-K(Fluo), A-(17-69-07)-A-Sar6-K(Fluo), and A-(17-69-12)-A-Sar6-K(Fluo). Due to the acidic nature of the 17-69 fluorescent peptides, they were typically prepared as concentrated DMSO stocks, from which dilution were prepared in 100 mM Tris pH 8 buffer.

[2] = Mouse pharmacokinetics, intravenous; assay type: in vivo; settings: plasma, male CD1 mice, single intravenous 5.925 mg/kg
Description: Mouse pharmacokinetics were acquired using bicyclic peptide 17-69-04-N004, which was dosed to one group of 12 male CD1 mice as a single intravenous, 5.925 mg/kg doses as a 5 mL/kg bolus of a 1.19 mg/mL solution. […] Blood samples were taken from two animals per time-point, via cardiac puncture under terminal anaesthesia, at 0.08, 0.5, 1, 2 and 4 hours post-dose, and transferred to EDTA tubes for plasma generation. Plasma samples were immediately frozen at −20 C. For analysis, samples were thawed rapidly and 50 μL aliquots were treated with 3 volumes of extraction solvent (2:9:9 mixture of 10 mM ammonium bicarbonate, pH 8, acetonitrile and methanol, containing an analytical internal standard). Precipitated proteins were removed by centrifugation and the supernatant was analysed by LC-MS/MS. Quantification of the samples was by reference to a calibration line prepared in control mouse plasma. Pharmacokinetic parameters were determined by non-compartmental analysis using the software package PK Solutions 2.0 from Summit Research Services.

MT1-MMP hemopexin domain [3] = biological target: T1, MT1-MMP hemopexin domain; assay: Competition assay using fluorescence polarisation; assay type: binding; settings: for Kd: read-out: Kd
From the text: Here, a pre-formed complex of PEX with the fluorescent PEX-binding tracer is titrated with free, non-fluoresceinated bicyclic peptide. Since all 17-69-based peptides are expected to bind at the same site, the titrant will displace the fluorescent tracer from PEX. Dissociation of the complex can be measured quantitatively, and the Kd of the competitor (titrant) to the target protein determined. The advantage of the competition method is that the affinities of non-fluoresceinated bicyclic peptides can be determined accurately and rapidly.
Subsequently, the non-fluorescent competitor bicyclic peptide (usually just the bicycle core sequence) is titrated, such that it displaces the fluorescent tracer from the target protein. The displacement of the tracer is measured and associated with a drop in fluorescence polarisation. The drop in fluorescence polarisation is proportional to the fraction of target protein bound with the non-fluorescent titrant, and thus is a measure of the affinity of titrant to target protein.
The raw data is fit to the analytical solution of the cubic equation that describes the equilibria between fluorescent tracer, titrant, and binding protein. The fit requires the value of the affinity of fluorescent tracer to the target protein, which can be determined separately by direct binding FP experiments (see previous section).

## CC[C@H](C)[C@@H]1NC(=O)[C@H](CC(=O)O)NC(=O)[C@H](Cc2ccc(O)cc2)NC(=O)[C@H](Cc2ccccc2)NC(=O)[C@H](CC(=O)O)NC(=O)[C@H](CCC(=O)O)NC(=O)[C@@H]2CSCc3cc(cc(c3)CSC[C@@H](C(=O)N[C@@H](C)C(=O)N(C)CC(=O)N(C)CC(=O)N(C)CC(=O)N(C)CC(=O)N(C)CC(=O)N(C)CC(=O)N[C@@H](CCCCNC(=O)c3ccc4c(c3)C(=O)OC43c4ccc(O)cc4Oc4cc(O)ccc43)C(N)=O)NC1=O)CSC[C@H](NC(=O)[C@H](C)N)C(=O)N[C@@H](CCSC)C(=O)N[C@@H](CC(N)=O)C(=O)N[C@@H](CCC(N)=O)C(=O)N[C@@H](Cc1ccccc1)C(=O)NCC(=O)N2 [17-69-12-N005, A-(17-69-12)-A-Sar6-K(Fl)] (H-ACMNQFGCEDFYDICA[Sar][Sar][Sar][Sar][Sar][Sar]K(5FAM)-NH2; linker 2-8-15 via TBMB)
MT1-MMP hemopexin domain [1]
  Kd: 3.1 nM

## CC[C@H](C)[C@@H]1NC(=O)[C@H](CC(=O)O)NC(=O)[C@H](Cc2ccc(O)cc2)NC(=O)[C@H](Cc2ccccc2)NC(=O)[C@H](CC(=O)O)NC(=O)[C@H](CCC(=O)O)NC(=O)[C@@H]2CSCc3cc(cc(c3)CSC[C@H](NC(C)=O)C(=O)N[C@@H](Cc3ccc(O)cc3)C(=O)N[C@@H](CC(N)=O)C(=O)N[C@@H](CCC(=O)O)C(=O)N[C@@H](Cc3ccccc3)C(=O)NCC(=O)N2)CSC[C@@H](C(N)=O)NC1=O [17-69-07-N004, Ac-(17-69-07) (wildtype)]
[2]
  AUC(0-inf): 4770 ng·h/mL
  AUC(0-t): 4770 ng·h/mL
  Cmax: 15800 ng/mL
  Tmax: 5 min
[2]; read-out: Clearance based on AUC 0-∞
  clearance: 20.7 mL/min/kg
[2]; read-out: Elimination Half-life
  half-life: 14 min
[2]; read-out: Volume of Distribution based on AUC 0-∞
  Vd: 0.4 L/kg

## CC[C@H](C)[C@@H]1NC(=O)[C@H](CC(=O)O)NC(=O)[C@H](Cc2ccc(O)cc2)NC(=O)[C@H](Cc2ccccc2)NC(=O)[C@H](CC(=O)O)NC(=O)[C@H](CCC(=O)O)NC(=O)[C@@H]2CSCc3cc(cc(c3)CSC[C@@H](C(=O)N[C@@H](C)C(N)=O)NC1=O)CSC[C@H](NC(=O)[C@H](C)N)C(=O)N[C@@H](CCSC)C(=O)N[C@@H](CC(N)=O)C(=O)N[C@@H](CCC(N)=O)C(=O)N[C@@H](Cc1ccccc1)C(=O)NCC(=O)N2 [17-69-12-N003, A-(17-69-12)-A] (H-ACMNQFGCEDFYDICA-NH2; linker 2-8-15 via TBMB)
MT1-MMP hemopexin domain [3]; Table 3, Competition, tracer A-(17-69-07)-A-Sar6-K(Fluorescein)
  Kd: 3.7 ± 2.52 nM

## CC[C@H](C)[C@@H]1NC(=O)[C@H](CC(=O)O)NC(=O)[C@H](Cc2ccc(O)cc2)NC(=O)[C@H](Cc2ccccc2)NC(=O)[C@H](CC(=O)O)NC(=O)[C@H](CCC(=O)O)NC(=O)[C@@H]2CSCc3cc(cc(c3)CSC[C@H](NC(=O)[C@H](C)NC(=O)CN3CCN(CC(=O)O)CCN(CC(=O)O)CCN(CC(=O)O)CC3)C(=O)N[C@@H](Cc3ccc(O)cc3)C(=O)N[C@@H](CC(N)=O)C(=O)N[C@@H](CCC(=O)O)C(=O)N[C@@H](Cc3ccccc3)C(=O)NCC(=O)N2)CSC[C@@H](C(N)=O)NC1=O [17-69-07-N147, DOTA[Lu]-A-(17-69-07)]
MT1-MMP hemopexin domain [3]; Table 15, DOTA-linked peptides
  Kd: 0.95 ± 0.5 nM

## C[C@H](NC(=O)CN1CCN(CC(=O)O)CCN(CC(=O)O)CCN(CC(=O)O)CC1)C(=O)N[C@H]1CSCc2cc3cc(c2)CSC[C@H](NC(=O)[C@@H](C)NC(=O)[C@H](Cc2cccc4ccccc24)NC(=O)[C@H](CCC(=O)O)NC(=O)[C@H](CC(N)=O)NC(=O)[C@@H](C)NC1=O)C(=O)N[C@@H](CCC(=O)O)C(=O)N[C@@H](CC(=O)O)C(=O)N[C@@H](Cc1ccccc1)C(=O)N[C@@H](Cc1ccc(Br)cc1)C(=O)N[C@@H](CC(=O)O)C(=O)N[C@@H](C(C)(C)C)C(=O)N[C@H](C(N)=O)CSC3 [17-69-07-N248, DOTA-A-(17-69-07) D-Ala1 1Nal4 D-Ala5 4BrPhe9 tBuGly11] ({DOTA}-AC[dA]NE[1Nal][dA]CEDF[Phe(4-Br)]D[Tle]C-NH2; linker 2-8-15 via TBMB)
MT1-MMP hemopexin domain [3]
  potency / activity toward MT1-MMP, in words: retained potency
MT1-MMP hemopexin domain [3]; Table 15, DOTA-linked peptides
  Kd: 0.5 nM

## CC[C@H](C)[C@@H]1NC(=O)[C@H](CC(=O)O)NC(=O)[C@H](Cc2ccc(O)cc2)NC(=O)[C@H](Cc2ccccc2)NC(=O)[C@H](CC(=O)O)NC(=O)[C@H](CCC(=O)O)NC(=O)[C@@H]2CSCc3cc(cc(c3)CSC[C@H](NC(=O)[C@H](C)NC(=O)CN3CCN(CC(=O)O)CCN(CC(=O)O)CCN(CC(=O)O)CC3)C(=O)N[C@@H](Cc3ccc(O)cc3)C(=O)N[C@@H](CC(N)=O)C(=O)N[C@@H](CCC(=O)O)C(=O)N[C@@H](Cc3ccccc3)C(=O)NCC(=O)N2)CSC[C@@H](C(N)=O)NC1=O [17-69-07-N144, DOTA-A-(17-69-07)]
MT1-MMP hemopexin domain [3]
  potency / activity toward MT1-MMP, in words: retains full potency to MT1-MMP
MT1-MMP hemopexin domain [3]; Table 15, DOTA-linked peptides
  Kd: 0.5 nM

## CC[C@H](C)[C@@H]1NC(=O)[C@H](CC(=O)O)NC(=O)[C@H](Cc2ccc(O)cc2)NC(=O)[C@H](Cc2ccccc2)NC(=O)[C@H](CC(=O)O)NC(=O)[C@H](CCC(=O)O)NC(=O)[C@@H]2CSCc3cc(cc(c3)CSC[C@H](NC(C)=O)C(=O)N[C@@H](Cc3ccc(O)cc3)C(=O)N[C@@H](CC(N)=O)C(=O)N[C@@H](CCC(=O)O)C(=O)N[C@@H](c3ccccc3)C(=O)NCC(=O)N2)CSC[C@@H](C(N)=O)NC1=O [17-69-07-N071, Ac-(17-69-07) Phg4] (Ac-CYNE[Phg]GCEDFYDIC-NH2; linker 1-7-14 via TBMB)
MT1-MMP hemopexin domain [3]; Table 8, substitutions at position 4
  Kd: 628 nM

## CC[C@H](C)[C@@H]1NC(=O)[C@H](CC(=O)O)NC(=O)[C@H](Cc2ccc(Br)cc2)NC(=O)[C@H](Cc2ccccc2)NC(=O)[C@H](CC(=O)O)NC(=O)[C@H](CCC(=O)O)NC(=O)[C@@H]2CSCc3cc(cc(c3)CSC[C@H](NC(C)=O)C(=O)N[C@@H](Cc3ccc(O)cc3)C(=O)N[C@@H](CC(N)=O)C(=O)N[C@@H](CCC(=O)O)C(=O)N[C@@H](Cc3ccccc3)C(=O)NCC(=O)N2)CSC[C@@H](C(N)=O)NC1=O [17-69-07-N130, Ac-(17-69-07) 4BrPhe9] (Ac-CYNEFGCEDF[Phe(4-Br)]DIC-NH2; linker 1-7-14 via TBMB)
MT1-MMP hemopexin domain [3]; Table 9, tolerated substitutions at positions 9 and 11
  Kd: 2.45 ± 1.08 nM

## CC[C@H](C)[C@@H]1NC(=O)[C@H](CC(=O)O)NC(=O)[C@H](Cc2ccc(O)cc2)NC(=O)[C@H](Cc2ccccc2)NC(=O)[C@H](CC(=O)O)NC(=O)[C@H](CCC(=O)O)NC(=O)[C@@H]2CSCc3cc(cc(c3)CSC[C@@H](C(=O)N[C@@H](C)C(N)=O)NC1=O)CSC[C@H](NC(=O)[C@H](C)N)C(=O)N[C@@H](C(C)C)C(=O)N[C@@H](CC(N)=O)C(=O)N[C@@H](CCC(=O)O)C(=O)N[C@@H](Cc1ccccc1)C(=O)NCC(=O)N2 [17-69-03-N001, A-(17-69-03)-A] (H-ACVNEFGCEDFYDICA-NH2; linker 2-8-15 via TBMB)
MT1-MMP hemopexin domain [3]; Table 2, FP method Competition, tracer A-(17-69-07)-A-Sar6-K(Fluorescein)
  Kd: 16.7 nM
